The results in this text go back to patent US20050266509A1, “Interaction of NMDA receptor with protein tyrosine phosphatase” (AGY Therapeutics, Inc., priority 2003, published 2005).

The structures appear in SMILES notation.

The term IC50 denotes the midpoint of a concentration-inhibition curve. Read a low IC50 as inhibition by little substance.

The target of one assay is YOP51 (Yersinia enterocolitica, UniProt P15273). Nature of the assay: FRET phosphatase assay, YOP51. The format is biochemical. The method, then:
For the enzyme activity assay, 2.5 μl of compound, 12.5 μl of enzyme, and 10 μl of substrate (separated by air gaps) are added to columns 3 through 24 by the Biomek FX in a single dispense. After the dispense, the tips are washed with DMSO and water for re-use between each quadrant. Once the assay plates are set up, they are incubated at 27° C. for 45 minutes. Then 20 μl of detection buffer is added to stop the reaction and to allow the Europium antibody (Eu-Ab) and streptavidin-APC to bind to the substrate.
The plates are then placed in the plate reader, an Analyst HT. Excitation light at 360 nm is used to excite the Europium antibody with an emission at 620 nm. Fluorescence resonance energy transfer (FRET) from Eu-Ab to APC will only occur when they are in close proximity. Therefore, when an APC emission is observed at 665 nm the enzyme has been inhibited from removing the phosphate group from the substrate. The FRET assay is time-resolved (TR), where there is a delay between excitation light and collection of emission signals. This reduces the amount of stray light created by short-lived fluorescing molecules. The Analyst HT measures APC and Europium emission signals and calculates the ratio between the two intensities. Typical intensities for the Europium is ˜2000 and APC is ˜600.
The following compounds were tested by FRET against the listed phosphatases, and the IC50 were obtained. […]

For a further assay, the target named is T1, PTPMEG (Homo sapiens, UniProt P29074).
T1 construct: Asp-Ser-6xHis (N); made in house; host or cells: E. coli BL21(DE3)
T1 sequence (P29074 655-911 limits assumed): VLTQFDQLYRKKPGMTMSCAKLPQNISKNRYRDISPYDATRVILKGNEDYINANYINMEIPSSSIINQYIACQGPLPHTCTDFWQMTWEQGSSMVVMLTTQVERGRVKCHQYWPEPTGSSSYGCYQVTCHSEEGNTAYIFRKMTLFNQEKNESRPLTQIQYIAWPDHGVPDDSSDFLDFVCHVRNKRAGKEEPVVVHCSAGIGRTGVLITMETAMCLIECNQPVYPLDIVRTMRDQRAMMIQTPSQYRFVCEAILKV
Put plainly: TR-FRET phosphatase activity assay, PTPMEG. The format is biochemical. The method, then:
Expression and Purification of PTPMEG The DNA sequence encoding the C-terminal 326 residues of PTPMEG (phosphatase domain) was subcloned into the pET-17b vector (Novagen) between the Ndel and Xhol restriction sites. An N-terminal tag consisting of Asp-Ser-6×His was incorporated at the beginning of the protein sequence. Protein expression was performed in BL21(DE3) cells at 37° C. with a 4 hour 0.5 mM IPTG induction. The cells were harvested by centrifugation and stored at −80° C. until needed for protein purification. Protein purification consisted of cell lysis by sonication, immobilized metal affinity chromatography (IMAC) on a Ni^2+-NTA column (Qiagen), followed by hydrophobic interaction chromatography (HIC) on a phenyl sepharose column (Amersham Pharmacia Biotech) and/or ion exchange chromatography (IEC) on a Q sepharose column (Amersham Pharmacia Biotech). The purified 38.3 kDa protein was buffer exchanged into 50 mM HEPES, pH 7.5 and stored at −80° C.
Phosphatase Buffer: 50 mm HEPES, pH 8; 1 mM DDT; 2 mM EDTA; 0.01% Brij solution; 10 mM MgCl2. […]
The plates are then placed in the plate reader, an Analyst HT. […] Fluorescence resonance energy transfer (FRET) from Eu-Ab to APC will only occur when they are in close proximity. […]
For orientation: Time-resolved FRET reads energy transfer from a long-lived donor to a nearby acceptor.

Chain of YOP51 (P15273 whole entry): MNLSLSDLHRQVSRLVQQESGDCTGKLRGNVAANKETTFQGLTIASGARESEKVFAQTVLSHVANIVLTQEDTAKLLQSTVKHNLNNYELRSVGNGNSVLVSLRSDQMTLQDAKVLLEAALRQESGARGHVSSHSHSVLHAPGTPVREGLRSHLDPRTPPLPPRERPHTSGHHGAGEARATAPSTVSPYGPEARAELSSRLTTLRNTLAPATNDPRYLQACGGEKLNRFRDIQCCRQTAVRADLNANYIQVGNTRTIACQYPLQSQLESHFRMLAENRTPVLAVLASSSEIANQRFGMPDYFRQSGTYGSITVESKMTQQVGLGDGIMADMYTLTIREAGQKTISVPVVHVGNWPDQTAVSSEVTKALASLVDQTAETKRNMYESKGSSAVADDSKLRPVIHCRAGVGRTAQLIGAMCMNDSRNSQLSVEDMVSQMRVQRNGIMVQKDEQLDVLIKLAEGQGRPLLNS

With `CCOC(=O)C(=CC1=C/C(=C/N(C)C)C(=O)O1)C(=O)OCC` [AGY- 0046293], the IC50 against YOP51 is 4180 nM; on PTPMEG it was 320 nM.
